Several values for one entry are separate records, joined by “and”; a condition that tells them apart may be missing. Equal values may be shown once.
Experiments:
HeLa cells = experiment: Cytotoxicity in HeLa cells (lactate dehydrogenase assay); type: cell-based, human; settings: for lethality to human epithelial cells (in words): HeLa, range of concentrations
Experimental: FIG. 12. Cytotoxicity measurement of varying concentration of PNA in HeLa cells. HeLa cells were plated on tissue culture treated 96-well plates at 4,500 cells per well. Varying concentrations of α-lexA and α-nonsense were added exogenously after 24 hours of growth and incubated in growth conditions for 18 hours. Cytotoxicity was measured using a lactate dehydrogenase assay and absorbance read at 450 nm with a blank (growth media with lactate dehydrogenase assay) subtracted. […] Error bars are standard deviation.

[1] = system: intracellular SL1344 S. typhimurium in HeLa cells; experiment: Salmonella infection of HeLa cells and PNA treatment (T3SS-PNA or naked PNA); type: cell-based, Salmonella enterica serovar typhimurium; settings: for reduction of intra-epithelial Salmonella CFU: PNA delivered via the T3SS, vs no treatment, p<0.05; for reduction of intra-epithelial Salmonella CFU / clearing of infection (in words): 10 μM, 18 hours; for GFP expressing Salmonella in images (in words): T3SS-PNA treatment, compared to no treatment or Naked-PNA treatment; for clearing of infection (in words): naked PNA added exogenously after infection, compared to no treatment
Experimental: FIG. 4. Establishing the bacterial Type III secretion system (T3SS) for PNA transport. (A) Schematic showing enhancement of PNA delivery into HeLa cells using the bacterial T3SS of Salmonella enterica serovar typhimurium (STm) for treatment of an intracellular infection of STm. HeLa cells were seeded and allowed to grow for 24 h. SL1344 GFP STm was added at a MOI of 10:1 and allowed to infect HeLa cells for 45 min following two separate conditions: (Top) No PNA is added during this time, termed here as Naked PNA treatment, (Bottom) PNA is added at the time of infection at t=0 to utilize the T3SS, termed here as T3SS-PNA treatment. The T3SS-PNAs enter Salmonella during 45 minutes of incubation due to transport enhanced by the cell penetrating peptides, followed by entry into host cells via T3SS encoding and PNA carrying STm. (Top and Bottom). After 45 minutes infected HeLa cells are washed and treated with media containing gentamicin for 75 minutes to kill extracellular bacteria. The cells are then incubated for 18 h with media containing gentamicin following the two separate conditions: (Top) PNA supplied after infection for Naked PNA treatment. (Bottom) No PNA is added after infection. Post 18 hours of treatment HeLa cells are fixed for imaging or lysed for Colony forming Unit (CFU) analysis. (B) Representative images of uninfected (Top left), and infected HeLa cells without treatment (Bottom left). Top (right) panels show representative images of infected HeLa cells following Naked-PNA treatment. Bottom (right) panels show representative images of infected HeLa cells following T3SS-PNA treatment. HeLa cells are stained with nucleic stain DAPI (blue), and membrane stain Phalloidin (pink), and green pixels represent intracellular SL1344 S. typhimurium fluorescing GFP (green). […] (C) Intracellular S. typhimurium load (CFU/mL) in presence or absence of treatment. Significant reduction in STm CFU in HeLa cells when PNA is delivered using T3SS.
For all cases, HeLa cells were infected at time t=0 with SL1344 for 45 minutes with a multiplicity of infection (MOI) of bacteria to HeLa cells of approximately 10:1. For the T3SS-PNA treatment method HeLa cells were co-incubated with SL1344 and either α-rpsD or α-lexA for 45 minutes, allowing the PNA to enter the Salmonella while simultaneously transporting the PNA-carrying Salmonella into the HeLa cells using the T3SS. […] Post-infection, the cells were washed and incubated with media containing gentamicin for a period of 75 minutes to remove any extracellular bacteria and/or PNA. For all treatments the media was then replaced with fresh gentamicin containing growth medium, with the naked PNA treatment condition also containing 10 μM PNA, and incubated an additional 18 (FIG. 4A). At the end of 18 hours, cultures were analyzed via imaging or measured by intra-epithelial colony forming units (CFU). […] The present inventors obtained similar results in an infection of mouse osteoblast cells (FIG. 11B).
Salmonella infection of HeLa cells and PNA treatment: For a single infection (FIG. 4), SL1344 cultures were inoculated from a single colony on solid media in to 1 mL of LB media and grown for 16 hours at 37° C. with shaking. Cultures were diluted 1:10 and regrown in LB prior to infection. Bacteria were washed thrice with PBS, optical density at 600 nm measured, and diluted to a multiplicity of infection (MOI) of 10 in Dulbecco PBS (DPBS). MOI is calculated based on an established optical density and colony forming unit (CFU) calibration, and the number of mammalian cells per well at the time of infection approximated based on their doubling time. Mammalian cells were washed thrice with Dulbecco's Phosphate-Buffered Saline (DPBS, Fisher Scientific) prior to infection for 45 minutes 37° C. with controlled humidity. […]

CRE E. coli = experiment: PNA growth assay (optical density) on clinical isolate; type: cell-based, Escherichia coli; settings: for growth inhibition: 10 μM PNA, optical density vs no treatment at 16 hours
Experimental: (§1) Bacterial Cell culture: The clinical isolates were obtained from the lab of Nancy Madinger at the University of Colorado Anschutz campus. Clinical isolates were grown in Cation Adjusted Mueller Hinton broth (CAMHB) (Becton, Dickinson and Company 212322) at 37° C. with 225 rpm shaking or on solid CAMHB with 1.5% agar at 37° C. Clinical isolates were maintained as freezer stocks in 90% CAMHB, 10% glycerol at −80° C. Freezer stocks were streaked out onto solid CAMHB and incubated for 16 h to produce single colonies prior to experiments. For each biological replicate, a single colony was picked from solid media and grown for 16 h in liquid CAMHB prior to experiments. Non-clinical isolates, such as E. coli MG1655 (ATCC700926) and Salmonella entorica serovar typhimurium SL1344, were cultured in liquid 2% lysogeny broth (LB) or on 2% LB with 1.5% agar for solid plates. S. typhimurium cultures were supplemented with 30 μg/mL streptomycin and SL1344 strains containing plasmids pFPV (SL1344-mCherry) or pRG1 modified with a lacIq promoter (SL1344-Holin) were supplemented with 100 μg/mL ampicillin. Freezer stocks were stored in 60% LB broth, 40% glycerol at −80° C. Freezer stocks were streaked out onto solid LB and incubated for 16 h to produce single colonies before experiments. For biological replicates, single colonies were started in liquid LB and grown for 16 hours prior to experiments. E. coli MG1655 PNA growth experiments were carried out in M9 media (1×M9 minimal media salts solution (MP Biomedicals), 2.0 mM MgSO4, and 0.1 mM CaCl2 in sterile water) with 0.4% glucose.
(§2) PNA growth assay: Biological replicates were diluted 1:10,000 into treatment condition in 384-well plates and measured for 24 h in a Tecan GENios at 562 nm with a bandwidth of 35 nm. Media absorbance blanks were subtracted from data prior to analysis. Normalized optical density (OD) data is shown normalized to the time point where the “no treatment” growth curves reached saturation phase which varied across biological replicates.

ESBL KPN = experiment: as above; type: cell-based, Klebsiella pneumoniae
Experimental: as §1, §2

| Substance | lethality to human epithelial cells (in words) (HeLa cells) | reduction of intra-epithelial Salmonella CFU [1] [%] | GFP expressing Salmonella in images (in words) [1] | clearing of infection (in words) [1] | monotherapy effect (in words) (CRE E. coli; 10 μM) | growth inhibition (CRE E. coli) | growth inhibition (ESBL KPN; 10 μM PNA, optical density vs no treatment at 16 hours) | concentration up to which no significant difference in cytotoxicity to negative control was seen (HeLa cells; HeLa cells, 18 hours, lactate dehydrogenase assay, p>0.05) | monotherapy effect (in words) (ESBL KPN; 10 μM) |
| --- | --- | --- | --- | --- | --- | --- | --- | --- | --- |
| α-rpsD: 12-mer antisense PNA AGAAAATGGCAA (SEQ ID NO. 19) targeting rpsD, conjugated to (KFF)3K cell penetrating peptide via AEEA-linker (all peptide nucleic acid (PNA); (KFF)3K cell-penetrating peptide attached via AEEA linker) | not found to be lethal | ~82±13 | evident decrease in GFP expressing Salmonella | not effective in clearing an infection | effective in killing | 99±0.4% and 99% | 82%±8.8 |  |  |
| α-lexA: 12-mer antisense PNA cGGAATGAAAGC (SEQ ID NO. 17) targeting lexA, conjugated to (KFF)3K cell penetrating peptide via AEEA-linker (antisense CGGAATGAAAGC; all peptide nucleic acid (PNA); (KFF)3K cell-penetrating peptide attached via AEEA linker) | not found to be lethal | ~69±8 | evident decrease in GFP expressing Salmonella | not effective in clearing an infection |  | 51±8.1% |  | up to 40 μM | no or minimal growth inhibition |

Reference: patent US20210087565A1, “ANTISENSE ANTIBIOTICS AND BACTERIAL SECRETION BASED DELIVERY SYSTEM TO ELIMINATE DRUG-RESISTANT BACTERIA” (priority 2018, published 2021)
